Measurements: publication PMC8944596, “Determination of the Relationships between the Chemical Structure and Antimicrobial Activity of a GAPDH-Related Fish Antimicrobial Peptide and Analogs Thereof” (Antibiotics, 2022)
≈ marks a conversion by molar mass, not a printed value. Ends that are not written are not given here.

Columns and labels:
[1] = tested on: E. coli ATCC 25922; set-up: method as in PMID 1605597; conditions: cited from earlier work
[2] = tested on: P. aeruginosa ATCC 27853; set-up: method as in PMID 1605597; conditions: cited from earlier work
[3] = tested on: E. coli ATCC 25922; assay: Broth microdilution MIC/MBC; format: cell-based; conditions: Escherichia coli, ATCC25922, MHB, 5 × 10^5 CFU/mL, 16 h at 37 °C, no visible growth, three independent repetitions, two technical replicates
Method: Escherichia coli ATCC 25922, Escherichia coli ATCC 11229, Pseudomonas aeruginosa ATCC 27853, Aeromonas salmonicida subsp. salmonicida 69 R3, Aeromonas salmonicida subsp. salmonicida 69 R5 [53], Micrococcus luteus LMA-272, and Listeria ivanovii ATCC 19119 were used for antibacterial activity testing. Details on these strains used in this study are included in Table 6. All these strains were cultivated in tryptic soy broth (TSB) (BD, Sparks, NV, USA), except for L. ivanovii, which was grown in brain heart infusion (BHI) broth (BD, Sparks, USA). All bacterial strains were grown at 37 °C, except for the two A. salmonicida strains, which were incubated at 20 °C. Strains were sub-cultured at least twice, before being used for antimicrobial and membrane permeabilization assays.
MICs for bacterial strains were determined using a broth microdilution protocol. Two-fold dilutions of peptide solutions ([…]) were made in Mueller Hinton Broth (MHB) (Oxoid, Basingstoke, UK) in 96-well polypropylene clear round bottom microplates (Corning Inc., Corning, NY, USA). […] Final volumes in the wells were of 200 μL. […] After reading of the MICs, 20 μL of the wells that were showing no visible bacterial growth were inoculated on tryptic soy agar (TSA) (or BHI agar for Listeria ivanovii) plates, which were then incubated at the appropriate temperature for 24 h. […]

[4] = tested on: Z. rouxii LL12_088; assay: Antifungal microdilution MIC/MFC; format: cell-based, Zygosaccharomyces rouxii; conditions: 99.9% inhibition of yeast growth by CFU counts on PDA
Method: Mucor racemosus LMA-722, Paecilomyces sp. 5332-9a, and Aspergillus niger 3071-13 were used as filamentous fungal strains. Saccharomyces boulardii 27169, Rhodotorula mucilaginosa 27173, and Zygosaccharomyces rouxii LL12_088 were used as yeast strains. Fungal strains were sub-cultured on potato dextrose agar (PDA) (BD, Sparks, USA) plates, at 25 °C, at least two times, before being used for antimicrobial and membrane permeabilization testing.
MICs were also tested using microdilutions in 96-well plates for fungal strains. The protocol used was roughly the same as that described for bacterial strains. RPMI 1640 (Sigma-Aldrich, St. Louis, MO, USA), buffered with MOPS (Fisher Scientific, Fair Lawn, NJ, USA) (0.164 M, pH = 7), was used instead of MHB, according to CLSI guidelines. Potato dextrose broth was used for microplates inoculated with Z. rouxii yeast. For filamentous fungi, conidia were harvested from 7-day cultures and diluted in buffered RPMI 1640 to obtain a suspension containing 5 × 10^4 CFU/mL, as assessed with a COUNTESS II FL automatic cell counter (Thermo Fisher Scientific, Waltham, MA, USA). […] Plates were then incubated for 24 (yeasts) or 48 (filamentous fungi) h at 25 °C. […] Natamycin (Sigma-Aldrich, St. Louis, MO, USA) was used as positive control for all fungal strains. […]

magainin-2
MIC, E. coli ATCC 25922 [1]: 50 µg/mL
MIC, P. aeruginosa ATCC 27853 [2]: 50 µg/mL

O=C(N[C@H](CO)[C@H](O)c1ccc([N+](=O)[O-])cc1)C(Cl)Cl [Chloramphenicol]
MIC [3]: 4 µg/mL (≈ 12.4 µM)

HGKKVEIVAIND [Analog 4]
MFC, Z. rouxii LL12_088 [4]: n.f.a. (No fungicidal activity)
